Experimental data as given in paper PMC10011747, “Targeting androgen receptor and the variants by an orally bioavailable Proteolysis Targeting Chimeras compound in castration resistant prostate cancer” (eBioMedicine, 2023).

How the values were obtained:
[1] = test system: AR-negative PC3 cells; assay: Cell viability, PC3; type: cell-based, human; settings: 7 days treatment
Method: (§1) Cells were seeded in triplicate in 96-well plates 1 day prior to drug treatment for all assays. For viability test and IC50 assessment, the alamarBlue™ Cell Viability Reagent (Thermo Fisher Scientific) was added to cells 7 days after PROTAC treatment, followed by fluorescence detection as the manufacturer instructed. The IC50 was calculated by dose-inhibition regression. For proliferation monitoring, 2, 4, 6 and 8 days after PROTAC treatment (day 0), viable cells were detected by MTT Cell Proliferation Kit I (Sigma–Aldrich) according to the manufacturer's instructions. Cellular caspase activity was measured by Caspase-Glo 3/7 Assay System (Promega) 1 or 2 days after the drug treatment.
Figure S15. ITRI-90 is ineffective for AR-n egative PC3 cells. (a) CWR22Rv1 and PC3 cell viability was detected upon 7 days treatment of ITRI-90. (b,c) Antitumor activity of ITRI -90 towards PC3 tumor xenografts.
PC3 tumor xenografts implanted in SCID mice were treated with ITRI-90 orally using 100 mg/kg twice daily dosing. The numbers of tumor in each group is as indicated. (b) Scatter plots of the tumor size. (c) Western blotting of AR and AR -V proteins in the tumors collected at the final time points. CWR22Rv1 xenograft samples from Figure 7i were used as positive control for AR and AR-V expression.
(1 picture or pasted object on this page, not shown here)

[2] = test system: CWR22Rv1 xenograft; assay: CWR22Rv1 xenograft efficacy study; type: in vivo
Method: Immunodifficient male C.B-17 SCID mice (NOD.CB17-Prkdc^scid/NcrCrlBltw) at 4–6 weeks of age were purchased from BioLASCO Taiwan Co., Ilan, Taiwan. All mice were housed in conventional cages in the AAALAC Full Accreditation (2011) in Industrial Technology Research Institute and were allowed to acclimatize and recover from shipping-related stress for one week prior to the study. The health of the mice was monitored by daily observations. Animals were kept in rooms at temperature of 22–26 °C with 40–70% humidity, positive pressure, 60% air recirculation, ventilation rate 15–20 changes per hour, and a controlled light–dark cycle (12–12 h). The order and location of each animal cage was randomly assigned to minimize potential confounders. CWR22Rv1 cells (5 × 10^6) were suspended in 100 μL of PBS with 30% Matrigel and subcutaneously implanted into the right flank of male C.B-17 SCID mice. Tumors were measured with calipers, and tumor size was calculated as follows: tumor volume (V) = (L × S^2)/2 (L, longest diameter, mm; S, shortest diameter, mm). When mean tumor volume reached 150–200 mm^3, the mice were randomly assigned into indicated groups (n = 5–6/group) and the day of initiating treatments was assigned as day 0. In the study using intraperitoneal (IP) injection, the mice received vehicle control (NMP: Cremophor: PBS = 1:2:7 (v:v:v)), ITRI-90 (10 mg/kg, BID) or ITRI-126 (10 mg/kg, BID) for the indicated days. In the study using oral (PO) gavage, the mice received vehicle control or ITRI-90 (100 mg/kg, BID) for 21 days. Tumor size and body weight of the animals were monitored and recorded two to three times per week. Mice were sacrificed when one of the tumor reached over 1000 mm^3 in size. Tumors were collected and immediately subjected to liquid nitrogen freezing and homogenization. The homogenized tumor samples were stored at −80 °C for subsequent western blotting analysis. The drug antitumor efficacy was presented as percentages of TGI of each tested animal, calculated as follows: [1 − (final tumor volume − initial tumor volume of the treated group)/average of (final tumor volume − initial tumor volume of the vehicle group)] × 100. Body weight of each mouse was also compared to that on the first day of treatment (day 0) and expressed as a percentage of day 0 value. All data points were included for calculation and the values are presented as mean ± SEM. Statistical analysis of the differences between two drug and vehicle treated groups was determined by two-tailed Student's t test. For negative control, same procedures as described above were followed. PC3 cells (5 × 10^6) mixing with 50% matrigel were subcutaneously implanted into both flanks of 8 male C.B-17 SCID mice, followed by random assignment for oral administration of vehicle control or ITRI-90 drug (100 mg/kg, BID) treatment (n = 4/group).

[3] = test system: AR-negative PC3 prostate cancer model; assay: PC3 xenograft negative control study; type: in vivo, mouse; settings: PO 100 mg/kg twice daily
Method: Immunodifficient male C.B-17 SCID mice (NOD.CB17-Prkdc^scid/NcrCrlBltw) at 4–6 weeks of age were purchased from BioLASCO Taiwan Co., Ilan, Taiwan. All mice were housed in conventional cages in the AAALAC Full Accreditation (2011) in Industrial Technology Research Institute and were allowed to acclimatize and recover from shipping-related stress for one week prior to the study. The health of the mice was monitored by daily observations. Animals were kept in rooms at temperature of 22–26 °C with 40–70% humidity, positive pressure, 60% air recirculation, ventilation rate 15–20 changes per hour, and a controlled light–dark cycle (12–12 h). […] Tumors were measured with calipers, and tumor size was calculated as follows: tumor volume (V) = (L × S^2)/2 (L, longest diameter, mm; S, shortest diameter, mm). […] Tumor size and body weight of the animals were monitored and recorded two to three times per week. […] The drug antitumor efficacy was presented as percentages of TGI of each tested animal, calculated as follows: [1 − (final tumor volume − initial tumor volume of the treated group)/average of (final tumor volume − initial tumor volume of the vehicle group)] × 100. Body weight of each mouse was also compared to that on the first day of treatment (day 0) and expressed as a percentage of day 0 value. […]
Figure S15. […] (a) CWR22Rv1 and PC3 cell viability was detected upon 7 days treatment of ITRI-90. […]

[4] = test system: caspase 3/7; assay: Caspase-Glo 3/7 activity; type: cell-based, human; settings: 5 μM LNCaP, 1 μM CWR22Rv1, two days after treatment
Method: as §1

Structure (SMILES)	PC3 cell viability [1]	toxicity monitored by animal body weight ([2]; IP 10 mg/kg twice daily)	tumor growth inhibition (TGI) ([2]; IP 10 mg/kg twice daily, day 12, SCID mice, no hormone manipulation) [%]	toxicity monitored by animal body weight ([2]; PO 100 mg/kg twice daily, 21 days)	tumor growth inhibition (TGI) ([2]; PO 100 mg/kg twice daily, day 21, SCID mice, no hormone ablation) [%]	AR-FL and AR-Vs protein levels in tumors ([2]; PO 100 mg/kg twice daily, final time point, western blot)	antitumor activity towards PC3 tumor xenografts [3]	tumor growth inhibition (TGI) ([2]; IP 10 mg/kg twice daily, day 14, SCID mice, no hormone manipulation) [%]	toxicity monitored by animal body weight ([2]; mouse, in vivo, ip, 10 mg/kg)	caspase 3/7 activity at lower concentrations [4]
Cc1ncsc1-c1ccc(CNC(=O)[C@@H]2C[C@H](O)CN2C(=O)[C@@H](NC(=O)COCCCCOc2ccc(C3CCN(C4=Nn5c(nnc5C(F)(F)F)CC4)CC3)cc2)C(C)(C)C)cc1 [ITRI-90, (2S,4S)-1-((S)-3,3-dimethyl-2-(2-(4-(4-(1-(3-(trifluoromethyl)-7,8-dihydro-[1,2,4]triazolo[4,3-b]pyridazin-6-yl)piperidin-4-yl)phenoxy)butoxy)acetamido)butanoyl)-4-hydroxy-N-(4-(4-methylthiazol-5-yl)benzyl)pyrrolidine-2-carboxamide]	ineffective	without obvious toxicities	76.64 ± 11.1	without obvious toxicity	71.73 ± 6.42	reduced	ineffectiveness	–	–	–
O=C1CCC(N2Cc3c(NC(=O)COCCCCOc4ccc(C5CCN(C6=Nn7c(nnc7C(F)(F)F)CC6)CC5)cc4)cccc3C2=O)C(=O)N1 (stereo not shown) [ITRI-126, N-(2-(2,6-dioxopiperidin-3-yl)-1-oxoisoindolin-4-yl)-2-(4-(4-(1-(3-(trifluoromethyl)-7,8-dihydro-[1,2,4]triazolo[4,3-b]pyridazin-6-yl)piperidin-4-yl)phenoxy)butoxy)acetamide]	–	–	–	–	–	–	–	49.8 ± 11.1	without obvious toxicities	induced strong caspase activity two days after drug treatment
